The values below come from patent publication US10434083B2, “Transmammary delivery of cyclooxygenase-2 inhibitors for analgesia in neonates” (Iowa State University Research Foundation, Inc., priority 2018, dated 2019).

Several values for one entry are separate records, joined by “and”; a condition that tells them apart may be missing. Equal values may be shown once. Entries after “also recorded” stand apart in the source; their conditions may differ.

A short description of series [1]: Total firocoxib exposure in piglets as a percentage of sow AUC. The format is in vivo, swine. The protocol: The relative transfer of firocoxib from medicated sows to piglets was evaluated by comparing the piglet plasma drug concentration as a percentage of the sow plasma drug concentration at each time point. Total piglet exposure to firocoxib via milk consumed from treated dams was evaluated by comparing the firocoxib AUC for the piglets with the drug AUC calculated for the corresponding dams from each treatment. Exposure percentages were determined using the equation:
[formula] Statistical Analysis

A further series deals with plasma cortisol. Put plainly: Plasma cortisol concentrations in piglets after processing (castration, tail docking, teeth clipping). The format is in vivo, swine. On the procedure:
Castration, teeth clipping, and tail docking were completed for each male piglet between the 6-h and 8-h blood collection time points. […] Castration was performed using a number 10 scalpel blade to making two vertical incisions approximately 2-3 cm long in the skin covering the testicles. The testicles were then marsupialized, and manual pressure was applied to the spermatic cord until it separated from the piglet's body. Side-cutter pliers were used to remove the tail at the 6th coccygeal vertebral body, and the canine teeth were filed flush with the gingival tissue.
To accommodate blood volume restrictions, blood samples for cortisol determination were collected from three randomly selected piglets/litter (two male and one female piglet at each time point) prior to processing (6 h after firocoxib injection in the sow) and after processing at approximately […] after drug injection in the sow. These time points corresponded to approximately 0, 2, 6, 18, 42, 66 and 90 h after processing. The blood for cortisol analysis was collected in 3-mL heparinized blood collection tubes (BD Vacutainer, Franklin Lakes, N.J.) and then centrifuged for 10 min at 1,500×g. The plasma was collected, then immediately frozen and stored at −80° C. The analyses for plasma cortisol concentrations were performed within 60 d after sample collection and within 10 consecutive days once the analyses were started. Plasma cortisol concentrations were determined using a commercial radioimmunoassay kit (CortiCote I-125, MP Biomedicals, Santa Ana, Calif.). […]
Plasma cortisol concentrations and ADG were analyzed using a nonlinear mixed-effects analysis incorporating both fixed effects and random effects (PROC GLMMIX; SAS university edition v9.04.01, SAS Institute, Cary, N.C.). […]
To account for the fact that not all the piglets were blood sampled at every time point due to blood volume restrictions in piglets, individual piglet peak cortisol concentrations (CortCmax) were calculated for each piglet after processing by visual inspection of the data. […]

A further series can be described thus: in vivo. Particulars: female, Yorkshire×Landrace, swine. The protocol:
Tissue concentrations of firocoxib and its descyclopropylmethyl metabolite were determined using high-pressure liquid chromatography (Agilent 1100 Pump, Column Compartment and Autosampler, Agilent Technologies, Santa Clara, Calif., USA) with mass spectrometry detection (LTQ Ion Trap, Thermo Scientific, San Jose, Calif., USA). The tissue samples analysed were muscle, injection site, kidney, liver, and fat. Eight calibration spikes were prepared in blank porcine tissue in the concentration range of 0.05-10 μg/g. The tissue samples were thawed and homogenized in a Waring blender before extraction and analysis. […]
Plasma and tissue firocoxib concentrations were determined using high-pressure liquid chromatography (Agilent 1100 Pump, Column Compartment and Autosampler, Agilent Technologies, Santa Clara, Calif.) with mass spectrometry detection (LTQ Ion Trap, Thermo Scientific, San Jose, Calif.). […] Full scan MS was used for analyte detection and three fragment ions were used for quantitation of each analyte species. […] Firocoxib and d6-firocoxib were analyzed in positive ion mode. […]
For plasma samples, the calibration curves had correlation coefficients (R^2) exceeding 0.995 across the concentration range. […] The limit of quantitation of the analysis was 1.0 ng/mL, with a limit of detection of 0.2 ng/mL. […]

Turning to `CC1(C)OC(=O)C(OCC2CC2)=C1c1ccc(S(C)(=O)=O)cc1` [firocoxib], the “% Exposure (AUClast, piglet vs sow)” value in series [1] (sow dose 0.5 mg/kg) was 41.42%; in series [1] (sow dose 1.0 mg/kg), 46.29%; in series [1] (sow dose 1.5 mg/kg), 46.83%; in series [1] (sow dose 2.0 mg/kg, 2 mg/kg), 25.32% and 25%. Also, the “% Exposure (AUC∞, piglet vs sow)” value in series [1] (sow dose 0.5 mg/kg) is 43.51%; in series [1] (sow dose 1.0 mg/kg), 56.50%; in series [1] (sow dose 1.5 mg/kg), 53.31%; in series [1] (sow dose 2.0 mg/kg), 26.75%. Also, the “mean plasma cortisol concentration at 2±1 h after processing” value in the series with plasma cortisol (male piglets, sow dose 2.0 mg/kg vs 0.5 mg/kg (P=0.0397) and 1.0 mg/kg (P=0.0416)) was “lower mean plasma cortisol concentration”. Besides, the “peak plasma cortisol of individual piglets (CortCmax)” value in the series with plasma cortisol (male piglets, 0.5 mg/kg (P=0.014) and 1.5 mg/kg (P=0.05) groups higher than 2.0 mg/kg) is “significant treatment effect”. The “plasma cortisol concentrations after processing, dose dependence” value in the series with plasma cortisol (piglets nursing sows given 0.5-2.0 mg/kg IM) is “reduces plasma cortisol concentrations after processing in a dose-dependent manner; also recorded: dose-dependent reduction of plasma cortisol concentrations”. The same compound showed a concentration at 21 d in “in vivo” of at most 50 ng/g.
